Results: patent US7925520B2, “Methods of predicting dose of drug and program for predicting dose of drug” (priority 2007, dated 2011)
Several values for one entry are separate records, joined by “and”; a condition that tells them apart may be missing. Equal values may be shown once. Read-outs that look alike come from different tables or passages of the source.

Columns and labels:
[1] = Prediction of Log(M*/C) from measured C and R by Equation 2; parameters: species or system rat; settings: M* determined as a function of measured C and R values (Eq. 2)
[2] = Measurement 1: migration M of drug ion to skin with membrane type iontophoresis device; format: in vitro ADME, rat; settings: for LogM: log of migration M, 6.25 mM, 0.94 mA, 60 minutes; for LogM / M (migration of drug ion to skin): rat back skin; for M (migration of drug ion to skin): 6.25 mM drug solution, constant current 0.94 mA for 60 minutes, average of 3
Source text: (§1) In some embodiments, a working side assembly 10 of the device 1 may include a working side electrode (negative electrode) 11; an electrolyte solution holding portion 12 for holding a physiological salt solution; a cation exchange membrane 13 on the front surface side of the electrolyte solution holding portion; a drug solution holding portion 14 for holding a drug solution on the front surface side of the cation exchange membrane 13; and an anion exchange membrane 15 on the front surface side of the drug solution holding portion.
(§2) In some embodiments, a non-working side assembly 20 of the device 1 may include a non-working side electrode (positive electrode) 21; an electrolyte solution holding portion 22 for holding a physiological salt solution; an anion exchange membrane 23 on the front surface side of the electrolyte solution holding portion 22; an electrolyte solution holding portion 24 for holding a physiological salt solution on the front surface side of the anion exchange membrane 23; and a cation exchange membrane 25 on the front surface side of the electrolyte solution holding portion 24. It should be noted that an ion exchange membrane CLE 04-2 manufactured by Tokuyama Co., Ltd. was used as each of the ion exchange membrane 13 and the ion exchange membrane 25, and an ion exchange membrane ALE 04-2 manufactured by Tokuyama Co., Ltd. was used as each of the ion exchange membrane 15 and the ion exchange membrane 23.
Energization was performed in a state where a corium layer 32 was brought into contact with the physiological salt solution of the electrolyte solution holding portion 26. After energization, the skin 30 was frozen and processed.
The above measurement was performed 3 times for each sample, and the average value of the measurements was determined as the migration M.

[3] = Measurement 2: migration C of drug ion under skin-absent condition (through anion exchange membrane into physiological salt solution); format: physicochemical; settings: for LogC: log of migration C, 6.25 mM, 0.94 mA, 60 minutes; for C (migration of drug ion under skin-absent condition): 6.25 mM drug solution, constant current 0.94 mA for 60 minutes, average of 3
Source text: as §1, §2
The drug solution composition of the drug solution holding portion 14, energization conditions, and the like were identical to those of Measurement 1.
The above measurement was performed 3 times for each sample, and the average value of the measurements was determined as the migration C.

[4] = value from Scifinder database, cited from earlier work; for PSA: in Å2 (unit assumed)
[5] = Measurement 3: migration R of drug ion to liposome; format: physicochemical; settings: 20 mM EPC liposome and 3.125 mM drug solution 1:1 by volume; 37° C., 18 hours; average of 3
Protocol: 20 mM of an EPC liposome (yolk phosphatidylcholine (lecithin)/particle diameter 290 to 490 nm) and 3.125 mM of a drug solution were mixed at a volume ratio of 1:1, and the mixture was incubated at 37° C. for 18 hours. After that, the resultant was centrifuged, and the amount of a drug ion in each of the supernatant and the precipitate was measured by HPLC, whereby the amount of the drug ion (unit: nmol/cm^3) that had migrated to the EPC liposome was measured.
The above measurement was performed 3 times for each sample, and the average value of the measurements was determined as the migration R.

With CCc1cccc2c3c([nH]c12)C(CC)(CC(=O)O)OCC3 (centres unmarked) [Etodolac] the “Predicted Log(M*/C)” value [1] was −0.54, the “Log(M/C)” value ([2]; from measured M and C) was −0.93 and the LogM [2] was 2.48. For the same compound, the LogC [3] was 3.41.

In the case of “1-Naphtaleneacetic acid [Napthaleneacetic acid]”, the “Predicted Log(M*/C)” value [1] is listed as −1.03, the PSA [4] is listed as 37 and 37.3 and the “Log(M/C)” value [2] is listed as −0.8. For the same compound, the “LogR (migration R of drug ion to liposome)” value (shortened to “LogR”) [5] was −0.47, the “C (migration of drug ion under skin-absent condition)” value [3] was 4806 nmol/mL and the LogC [3] was 3.68.

For CC(C(=O)O)c1cccc(C(=O)c2ccccc2)c1 (centres unmarked) [Ketoprofen], the “Predicted Log(M*/C)” value [1] is listed as −0.89, the LogD [4] is listed as 0.33 and the PSA [4] is listed as 54. The “LogR” value [5] was −0.29, the “C (migration of drug ion under skin-absent condition)” value [3] was 2432 nmol/mL and the LogC [3] was 3.39.

For O=C(O)c1ccccc1O [Salicylic acid], the “Predicted Log(M*/C)” value [1] is given as −1.04, the LogD [4] is given as −1.08 and the LogP [4] is given as 2.06. The PSA [4] was 58, the “Log(M/C)” value ([2]; from measured M and C) was −0.96 and the LogM [2] was 2.87. The “M (migration of drug ion to skin)” value [2] was 749 nmol/mL, the “LogR” value [5] was −0.49 and the “C (migration of drug ion under skin-absent condition)” value [3] was 6800 nmol/mL. For the same compound, the LogC [3] was 3.83.

For O=C(O)Cc1ccc(-c2ccccc2)cc1 [Felbinac], the LogD [4] is given as 0.83, the LogP [4] is given as 3.26 and the “LogR” value [5] is given as 0.27. The “C (migration of drug ion under skin-absent condition)” value [3] was 3409 nmol/mL and the LogC [3] was 3.53.

For O=C(O)Cc1ccccc1Nc1c(Cl)cccc1Cl [Diclofenac], the “Predicted Log(M*/C)” value [1] was 0.1, the “Log(M/C)” value ([2]; from measured M and C) was 0.3 and the LogM [2] was 3.16. It also gave a LogC [3] of 2.86.

In the case of COc1ccc2c(c1)c(CC(=O)O)c(C)n2C(=O)c1ccc(Cl)cc1 [Indomethacin], the “Predicted Log(M*/C)” value [1] is listed as −0.49, the LogD [4] is listed as −0.13 and the LogP [4] is listed as 3.11. The PSA [4] was 64, the “Log(M/C)” value ([2]; from measured M and C) was −0.87 and the LogM [2] was 2.47. The “M (migration of drug ion to skin)” value [2] was 296 nmol/mL, the “LogR” value [5] was 0.23 and the “C (migration of drug ion under skin-absent condition)” value [3] was 2189 nmol/mL. For the same compound, the LogC [3] was 3.34.

For O=C(O)CCCc1c[nH]c2ccccc12 [Indolebutylic acid, Indolebutyric acid], the “Predicted Log(M*/C)” value [1] is given as −0.87, the PSA [4] is given as 53 and 53.1 and the “Log(M/C)” value [2] is given as −0.74. The “LogR” value [5] was −0.26, the “C (migration of drug ion under skin-absent condition)” value [3] was 3744 nmol/mL and 3774 nmol/mL and the LogC [3] was 3.58.

In the case of O=C(O)Cc1c[nH]c2ccccc12 [Indoleacetic acid, 3-Indoleacetic acid], the LogD [4] is listed as −1.37, the LogP [4] is listed as 1.43 and the “LogR” value [5] is listed as −0.69. The “C (migration of drug ion under skin-absent condition)” value [3] was 7822 nmol/mL and the LogC [3] was 3.89.
